Measured values published in DBAASP.
Converted amounts (≈) assume the structure as drawn. Blank lines part the entries; values can stand above or below the molecule they belong to.

Tests used:
Assay in all cases: ≥ marks a high value that may be exact or a test limit, other limits are often not marked, values filed in µg/mL are converted to µM
[1] = system: Staphylococcus epidermidis KCTC 1917
[2] = system: Escherichia coli KCTC 2571
[3] = system: Staphylococcus aureus KCTC 3881
[4] = system: Escherichia coli KCTC 2593
[5] = system: Bacillus subtilis KCTC 1022
[6] = system: Salmonella typhimurium KCTC 1926
[7] = system: Staphylococcus aureus KCTC 1621
[8] = system: Pseudomonas aeruginosa KCTC 1637
[9] = system: Bacillus subtilis KCTC 1021
[10] = system: Pseudomonas aeruginosa KCTC 2004
[11] = system: Bacillus subtilis KCTC 3068
[12] = system: Escherichia coli KCTC 1682
[13] = system: Pseudomonas aeruginosa KCTC 2513
[14] = system: Staphylococcus aureus KCTC 1916
[15] = system: Cladosporium herbarum
[16] = system: Pseudomonas syringae pv. tomato DC3000
[17] = system: Pectobacterium carotovorum subsp. carotovorum DSM 30168
[18] = system: Botrytis cinerea
[19] = system: Clavibacter michiganensis subsp. michiganensis DSM 46294
[20] = system: Pseudomonas corrugata DSM 7228
[21] = system: Alternaria alternata
[22] = system: Pseudomonas syringae pv. syringae DSM 10604
[23] = system: Staphylococcus aureus 90857
[24] = system: Xanthomonas vesicatoria DSM 50861
[25] = system: Escherichia coli BL21AI
[26] = system: Micrococcus luteus ATCC 10240
[27] = system: Enterococcus faecalis 981
[28] = system: Nocardia asteroides 201118
[29] = system: Staphylococcus aureus ATCC 25923
[30] = system: Neisseria gonorrhoeae FA19
[31] = system: Neisseria gonorrhoeae F62
[32] = system: Candida glabrata 090902
[33] = system: Psychrobacter faecalis X29

SMILES: CC[C@H](C)[C@H](NC(=O)CNC(=O)[C@H](CCCN=C(N)N)NC(=O)[C@H](Cc1c[nH]c2ccccc12)NC(=O)[C@@H](NC(=O)[C@H](Cc1cnc[nH]1)NC(=O)[C@H](Cc1cnc[nH]1)NC(=O)[C@H](Cc1ccccc1)NC(=O)[C@@H](N)Cc1ccccc1)[C@@H](C)CC)C(=O)N[C@H](C(=O)N[C@@H](Cc1cnc[nH]1)C(=O)N[C@H](C(=O)NCC(=O)N[C@@H](CCCCN)C(=O)N[C@H](C(=O)N[C@H](C(=O)N[C@@H](Cc1cnc[nH]1)C(=O)N[C@@H](CCCN=C(N)N)C(=O)N[C@@H](CC(C)C)C(=O)N[C@H](C(=O)N[C@H](C(=O)NCC(=O)O)[C@@H](C)O)C(C)C)[C@@H](C)CC)[C@@H](C)O)C(C)C)C(C)C [FFHHIWRGIVHVGKTIHRLVTG]
MIC [1]: 2 µM (≈ 5.22 µg/mL) | MIC [2]: 2 µM (≈ 5.22 µg/mL) | MIC [3]: 2 µM (≈ 5.22 µg/mL) | MIC [4]: 2 µM (≈ 5.22 µg/mL) | MIC [5]: 4 µM (≈ 10.4 µg/mL) | MIC [6]: 4 µM (≈ 10.4 µg/mL) | MIC [7]: 2 µM (≈ 5.22 µg/mL) | MIC [8]: 4 µM (≈ 10.4 µg/mL) | MIC [9]: 4 µM (≈ 10.4 µg/mL) | MIC [10]: 4 µM (≈ 10.4 µg/mL) | MIC [11]: 4 µM (≈ 10.4 µg/mL) | MIC [12]: 2 µM (≈ 5.22 µg/mL) | MIC [13]: 4 µM (≈ 10.4 µg/mL) | MIC [14]: 2 µM (≈ 5.22 µg/mL)

SMILES: CC(C)C[C@H](N)C(=O)N[C@H]1CSSC[C@@H](C(=O)N[C@H](C(N)=O)C(C)C)NC(=O)[C@H](C(C)C)NC(=O)[C@H](C)NC(=O)[C@H](Cc2ccccc2)NC(=O)[C@H](CCCN=C(N)N)NC(=O)[C@H](CCCN=C(N)N)NC(=O)[C@H](CCCN=C(N)N)NC(=O)[C@H](C)NC(=O)[C@H](Cc2ccc(O)cc2)NC1=O [LCYARRRFAVCV]
MIC [30]: 7.65 µM (≈ 11.1 µg/mL) | MIC [31]: 1.1 µM (≈ 1.6 µg/mL)

SMILES: CC(C)C[C@H](NC(=O)[C@H](CCCNC(=N)N)NC(=O)CNC(=O)CNC(=O)[C@@H](N)CCCNC(=N)N)C(=O)N[C@@H](C)C(=O)N[C@@H](Cc1ccc(O)cc1)C(=O)N[C@@H](C)C(=O)N[C@@H](CCCNC(=N)N)C(=O)N[C@@H](CCCNC(=N)N)C(=O)N[C@@H](CCCNC(=N)N)C(=O)N[C@@H](Cc1ccccc1)C(=O)N[C@@H](C)C(=O)N[C@H](C(=O)N[C@@H](C)C(=O)N[C@H](C(=O)NCC(=O)N[C@@H](CCCNC(=N)N)C(N)=O)C(C)C)C(C)C [RGGRLAYARRRFAVAVGR]
MIC [30]: ≥ 224 µM | MIC [31]: 10 µM (≈ 20.3 µg/mL)

SMILES: CC[C@H](C)[C@H](NC(=O)[C@H](CC(C)C)NC(=O)CNC(=O)[C@@H]1CCCN1C(=O)[C@H](CC(C)C)NC(=O)[C@@H](N)Cc1ccccc1)C(=O)N[C@@H](CCCCN)C(=O)N[C@H](C(=O)N[C@@H](C)C(=O)N[C@H](C(=O)NCC(=O)N[C@H](C(=O)NCC(=O)N[C@@H](CO)C(=O)N[C@H](C(=O)N[C@H](C(=O)N[C@@H](CC(C)C)C(=O)N[C@H]1CSSC[C@@H](C(=O)O)NC(=O)[C@H](CCCCN)NC(=O)[C@H](CCCCN)NC(=O)[C@H]([C@@H](C)O)NC(=O)[C@H]([C@@H](C)CC)NC(=O)[C@H](CCCCN)NC1=O)[C@@H](C)CC)[C@@H](C)O)C(C)C)C(C)C)C(C)C [FLPGLIKVAVGVGSTILCKITKKC]
MIC [32]: 6.3 µM (≈ 15.7 µg/mL) | MIC [27]: 3.1 µM (≈ 7.71 µg/mL) | MIC [28]: 3.1 µM (≈ 7.71 µg/mL) | MIC [29]: 6.3 µM (≈ 15.7 µg/mL) | MIC [33]: ≥ 50 µM

SMILES: CC[C@H](C)[C@H](NC(=O)CNC(=O)[C@H](CCCN=C(N)N)NC(=O)[C@H](Cc1ccccc1)NC(=O)[C@@H](NC(=O)[C@H](Cc1cnc[nH]1)NC(=O)[C@H](Cc1cnc[nH]1)NC(=O)[C@H](Cc1c[nH]c2ccccc12)NC(=O)[C@@H](N)Cc1ccccc1)[C@@H](C)CC)C(=O)N[C@H](C(=O)N[C@@H](Cc1cnc[nH]1)C(=O)N[C@H](C(=O)NCC(=O)N[C@@H](CCCCN)C(=O)N[C@H](C(=O)N[C@H](C(=O)N[C@@H](Cc1cnc[nH]1)C(=O)N[C@@H](CCCN=C(N)N)C(=O)N[C@@H](CC(C)C)C(=O)N[C@H](C(=O)N[C@H](C(=O)NCC(=O)O)[C@@H](C)O)C(C)C)[C@@H](C)CC)[C@@H](C)O)C(C)C)C(C)C [FWHHIFRGIVHVGKTIHRLVTG]
MIC [1]: 2 µM (≈ 5.22 µg/mL) | MIC [2]: 2 µM (≈ 5.22 µg/mL) | MIC [3]: 2 µM (≈ 5.22 µg/mL) | MIC [4]: 2 µM (≈ 5.22 µg/mL) | MIC [5]: 2 µM (≈ 5.22 µg/mL) | MIC [6]: 2 µM (≈ 5.22 µg/mL) | MIC [7]: 2 µM (≈ 5.22 µg/mL) | MIC [8]: 4 µM (≈ 10.4 µg/mL) | MIC [9]: 2 µM (≈ 5.22 µg/mL) | MIC [10]: 4 µM (≈ 10.4 µg/mL) | MIC [11]: 2 µM (≈ 5.22 µg/mL) | MIC [12]: 2 µM (≈ 5.22 µg/mL) | MIC [13]: 4 µM (≈ 10.4 µg/mL) | MIC [14]: 2 µM (≈ 5.22 µg/mL)

The next lines start with the values.

MIC [15]: 6.45 µM (≈ 9.99 µg/mL) | MIC [16]: 0.645 µM (≈ 0.999 µg/mL) | MIC [17]: 25.8 µM (≈ 40 µg/mL) | MIC [18]: ≥ 64.5 µM | MIC [19]: 0.645 µM (≈ 0.999 µg/mL) | MIC [20]: 1.29 µM (≈ 2 µg/mL) | MIC [21]: ≥ 64.5 µM | MIC [22]: 1.29 µM (≈ 2 µg/mL) | MIC [23]: 25 µM (≈ 38.8 µg/mL) | MIC [24]: 1.29 µM (≈ 2 µg/mL)
SMILES: CC(C)C[C@H](NC(=O)[C@H](CCCCN)NC(=O)[C@H](CC(C)C)NC(=O)[C@H](CCCN=C(N)N)NC(=O)[C@H](CCCCN)NC(=O)[C@H](CCCCN)NC(=O)[C@@H](N)CCCN=C(N)N)C(=O)N[C@@H](CC(C)C)C(=O)N[C@@H](CCCCN)C(=O)N[C@@H](CCCN=C(N)N)C(=O)N[C@@H](CC(C)C)C(=O)N[C@H](C(N)=O)C(C)C [RKKRLKLLKRLV]

MIC [25]: 6.81 µM (≈ 16 µg/mL) | MIC [26]: 27.2 µM (≈ 64 µg/mL)
SMILES: CC[C@H](C)[C@H](NC(=O)[C@H](CCCN=C(N)N)NC(=O)[C@H](CCCN=C(N)N)NC(=O)[C@@H]1CCCN1C(=O)[C@@H]1CCCN1C(=O)[C@H](CCCN=C(N)N)NC(=O)[C@@H]1CCCN1C(=O)[C@H](CCCN=C(N)N)NC(=O)[C@@H]1CCCN1C(=O)[C@H](CC(C)C)NC(=O)[C@H](Cc1ccc(O)cc1)NC(=O)[C@@H]1CCCN1C(=O)[C@@H]1CCCN1C(=O)[C@H](CCCCN)NC(=O)[C@H](CC(=O)O)NC(=O)[C@@H](N)C(C)C)C(=O)N[C@@H](Cc1ccc(O)cc1)C(=O)N[C@@H](CC(N)=O)C(=O)N[C@@H](CC(N)=O)C(N)=O [VDKPPYLPRPRPPRRIYNN]

MIC [27]: ≥ 50 µM | MIC [28]: 12.5 µM (≈ 23.6 µg/mL) | MIC [29]: 25 µM (≈ 47.2 µg/mL)
SMILES: CC[C@H](C)[C@H](NC(=O)[C@H](CCCCN)NC(=O)[C@@H]1CCCN1C(=O)[C@H](CC(C)C)NC(=O)[C@H](CC(C)C)NC(=O)[C@@H](NC(=O)[C@H](CO)NC(=O)[C@H](CC(C)C)NC(=O)[C@H](C)NC(=O)CNC(=O)[C@H](Cc1ccccc1)NC(=O)[C@H](CC(C)C)NC(=O)[C@H](CC(C)C)NC(=O)[C@@H]1CCCN1C(=O)[C@H](CC(C)C)NC(=O)[C@@H](N)Cc1ccccc1)[C@@H](C)O)C(=O)N[C@@H](Cc1ccccc1)C(N)=O [FLPLLFGALSTLLPKIF]

MIC [25]: 3.49 µM (≈ 7.81 µg/mL) | MIC [26]: 0.107 µM (≈ 0.24 µg/mL)
SMILES: CC[C@H](C)[C@H](NC(=O)[C@H](Cc1ccc(O)cc1)NC(=O)[C@@H](NC(=O)[C@@H]1CCCN1C(=O)[C@H](CCCN=C(N)N)NC(=O)[C@H](CC(N)=O)NC(=O)[C@H](CC(N)=O)NC(=O)CN)C(C)C)C(=O)N1CCC[C@H]1C(=O)N[C@@H](CCCN=C(N)N)C(=O)N1CCC[C@H]1C(=O)N[C@@H](CCCN=C(N)N)C(=O)N1CCC[C@H]1C(=O)N1CCC[C@H]1C(=O)N[C@@H](Cc1cnc[nH]1)C(=O)N1CCC[C@H]1C(=O)N[C@@H](CCCN=C(N)N)C(=O)N[C@@H](CC(C)C)C(=O)N[C@H](C(=O)O)C(C)C [GNNRPVYIPRPRPPHPRLV]
